Test results from patent US20060142312A1, “C6-aryl and heteroaryl substituted pyrido[2,3-D] pyrimidin-7-ones” (PFIZER INC, priority 2004, published 2006).
Structures can show the parent of a compound that is named as a salt.

SMILES	melting point
O=c1c(Cc2ccccn2)cc2cnc(NC3CCNCC3)nc2n1C1CCCC1 (as salt: TFA) [Example 26, 8-Cyclopentyl-2-(piperidin-4-ylamino)-6-pyridin-2-ylmethyl-8H-pyrido[2,3-d]pyrimidin-7-one]	138 to 140 °C
CS(=O)(=O)N1CCC(Nc2ncc3cc(Cc4ccccn4)c(=O)n(C4CCCC4)c3n2)CC1 [Example 27, 8-Cyclopentyl-2-(1-methanesulfonyl-piperidin-4-ylamino)-6-pyridin-2-ylmethyl-8H-pyrido[2,3-d]pyrimidin-7-one]	220 to 223 °C
Cc1c(Cc2ccccc2)c(=O)n(C2CCCC2)c2nc(Nc3ccc(N4CCNCC4)cc3)ncc12 [Example 29, 6-Benzyl-8-cyclopentyl-5-methyl-2-(4-piperazin-1-yl-phenylamino)-8H-pyrido[2,3-d]pyrimidin-7-one]	114 °C
Cc1c(C(O)c2ccccc2)c(=O)n(C2CCCC2)c2nc(Nc3ccc(N4CCNCC4)cc3)ncc12 (stereo not drawn) [Example 31, 8-Cyclopentyl-6-(hydroxy-phenyl-methyl)-5-methyl-2-(4-piperazin-1-yl-phenylamino)-8H-pyrido[2,3-d]pyrimidin-7-one]	185 °C (dec.)
Cc1c(C(=O)c2ccccc2)c(=O)n(C2CCCC2)c2nc(Nc3ccc(N4CCNCC4)cc3)ncc12 [Example 32, 6-Benzoyl-8-cyclopentyl-5-methyl-2-(4-piperazin-1-yl-phenylamino)-8H-pyrido[2,3-d]pyrimidin-7-one]	190 °C (dec.)
CN1CCN(S(=O)(=O)N2CCC(Nc3ncc4cc(Cc5ccccc5)c(=O)n(C5CCCC5)c4n3)CC2)CC1 [Example 33, 6-Benzyl-8-cyclopentyl-2-[1-(4-methyl-piperazine-1-sulfonyl)-piperidin-4-ylamino]-8H-pyrido[2,3-d]pyrimidin-7-one]	182 to 183 °C
CC(C)S(=O)(=O)N1CCC(Nc2ncc3cc(Cc4ccccn4)c(=O)n(C4CCCC4)c3n2)CC1 [Example 35, 8-Cyclopentyl-2-[1-(propane-2-sulfonyl)-piperidin-4-ylamino]-6-pyridin-2-ylmethyl-8H-pyrido[2,3-d]pyrimidin-7-one]	216 to 219 °C
O=c1c(Cc2ccccc2)cc2cnc(NCCO)nc2n1C1CCCC1 [Example 42, 6-Benzyl-8-cyclopentyl-2-(2-hydroxy-ethylamino)-8H-pyrido[2,3-d]pyrimidin-7-one]	177 to 179 °C
O=c1c(Cc2ccccc2)cc2cnc(NCc3ccccc3)nc2n1C1CCCC1 [Example 43, 6-Benzyl-2-benzylamino-8-cyclopentyl-8H-pyrido[2,3-d]pyrimidin-7-one]	186 to 188 °C
O=c1c(Cc2ccccc2)cc2cnc(Nc3ccccc3)nc2n1C1CCCC1 [Example 44, 6-Benzyl-8-cyclopentyl-2-phenylamino-8H-pyrido[2,3-d]pyrimidin-7-one]	161 to 163 °C
CNc1ncc2cc(Cc3ccccc3)c(=O)n(C3CCCC3)c2n1 [Example 47, 6-Benzyl-8-cyclopentyl-2-methylamino-8H-pyrido[2,3-d]pyrimidin-7-one]	144 to 146 °C
CN(CCO)c1ncc2cc(Cc3ccccc3)c(=O)n(C3CCCC3)c2n1 [Example 48, 6-Benzyl-8-cyclopentyl-2-[(2-hydroxy-ethyl)-methyl-amino]-8H-pyrido[2,3-d]pyrimidin-7-one]	< 60 °C
CN(C)c1ncc2cc(Cc3ccccc3)c(=O)n(C3CCCC3)c2n1 [Example 49, 6-Benzyl-8-cyclopentyl-2-dimethylamino-8H-pyrido[2,3-d]pyrimidin-7-one]	115 to 117 °C
O=c1c(Cc2ccccc2)cc2cnc(NCCCn3ccnc3)nc2n1C1CCCC1 [Example 50, 6-Benzyl-8-cyclopentyl-2-(3-imidazol-1-yl-propylamino)-8H-pyrido[2,3-d]pyrimidin-7-one]	142 to 144 °C
O=c1c(Cc2ccccc2)cc2cnc(NCCc3cnc[nH]3)nc2n1C1CCCC1 [Example 51, 6-Benzyl-8-cyclopentyl-2-[2-(3H-imidazol-4-yl)-ethylamino]-8H-pyrido[2,3-d]pyrimidin-7-one]	163 to 165 °C
O=C(O)CCNc1ncc2cc(Cc3ccccc3)c(=O)n(C3CCCC3)c2n1 [Example 52, 3-(6-Benzyl-8-cyclopentyl-7-oxo-7,8-dihydro-pyrido[2,3-d]pyrimidin-2-ylamino)-propionic acid]	164 to 170 °C
CCCN1CCC(Nc2ncc3cc(Cc4ccc(C)cc4)c(=O)n(C4CCCC4)c3n2)CC1 [Example 59, 8-Cyclopentyl-6-(4-methyl-benzyl)-2-(1-propyl-piperidin-4-ylamino)-8H-pyrido[2,3-d]pyrimidin-7-one]	154 to 155 °C
CCCN1CCC(Nc2ncc3cc(Cc4ccccc4C)c(=O)n(C4CCCC4)c3n2)CC1 [Example 60, 8-Cyclopentyl-6-(2-methyl-benzyl)-2-(1-propyl-piperidin-4-ylamino)-8H-pyrido[2,3-d]pyrimidin-7-one]	149 to 151 °C
CCCN1CCC(Nc2ncc3cc(Cc4cccc(C)c4)c(=O)n(C4CCCC4)c3n2)CC1 [Example 61, 8-Cyclopentyl-6-(3-methyl-benzyl)-2-(1-propyl-piperidin-4-ylamino)-8H-pyrido[2,3-d]pyrimidin-7-one]	118 to 120 °C
CCCN1CCC(Nc2ncc3cc(Cc4ccc(CC)cc4)c(=O)n(C4CCCC4)c3n2)CC1 [Example 62, 8-Cyclopentyl-6-(4-ethyl-benzyl)-2-(1-propyl-piperidin-4-ylamino)-8H-pyrido[2,3-d]pyrimidin-one]	151 to 153 °C
CCCN1CCC(Nc2ncc3cc(Cc4ccc(C(C)C)cc4)c(=O)n(C4CCCC4)c3n2)CC1 [Example 63, 8-Cyclopentyl-6-(4-isopropyl-benzyl)-2-(1-propyl-piperidin-4-ylamino)-8H-pyrido[2,3-d]pyrimidin-7-one]	156 to 160 °C
Cc1ccccc1Cc1cc2cnc(Nc3ccc(N4CCNCC4)cc3)nc2n(C2CCCC2)c1=O [Example 69, 8-Cyclopentyl-6-(2-methyl-benzyl)-2-(4-piperazin-1-yl-phenylamino)-8H-pyrido[2,3-d]pyrimidin-7-one]	210 °C
Cc1cccc(Cc2cc3cnc(Nc4ccc(N5CCNCC5)cc4)nc3n(C3CCCC3)c2=O)c1 [Example 70, 8-Cyclopentyl-6-(3-methyl-benzyl)-2-(4-piperazin-1-yl-phenylamino)-8H-pyrido[2,3-d]pyrimidin-7-one]	200 to 203 °C
CCc1ccc(Cc2cc3cnc(Nc4ccc(N5CCNCC5)cc4)nc3n(C3CCCC3)c2=O)cc1 [Example 71, 8-Cyclopentyl-6-(4-ethyl-benzyl)-2-(4-piperazin-1-yl-phenylamino)-8H-pyrido[2,3-d]pyrimidin-7-one]	175 °C
CC(C)c1ccc(Cc2cc3cnc(Nc4ccc(N5CCNCC5)cc4)nc3n(C3CCCC3)c2=O)cc1 [Example 72, 8-Cyclopentyl-6-(4-isopropyl-benzyl)-2-(4-piperazin-1-yl-phenylamino)-8H-pyrido[2,3-d]pyrimidin-7-one]	140 to 145 °C

The remaining lines, values ahead:

melting point	SMILES
210 to 212 °C	CC(C)S(=O)(=O)N1CCC(Nc2ncc3cc(Cc4ccccc4)c(=O)n(C4CCCC4)c3n2)CC1 [Example 34, 6-Benzyl-8-cyclopentyl-2-[1-(propane-2-sulfonyl)-piperidin-4-ylamino]-8H-pyrido[2,3-d]pyrimidin-7-one]
167 to 170 °C	CN(C)C1CCC(Nc2ncc3cc(Cc4ccccc4)c(=O)n(C4CCCC4)c3n2)CC1 (stereo not drawn) [Example 40, 6-Benzyl-8-cyclopentyl-2-(4-dimethylamino-cyclohexylamino)-8H-pyrido[2,3-d]pyrimidin-7-one]
128 to 130 °C	O=c1c(Cc2ccccc2)cc2cnc(NC3CCCCC3)nc2n1C1CCCC1 [Example 41, 6-Benzyl-2-cyclohexylamino-8-cyclopentyl-8H-pyrido[2,3-d]pyrimidin-7-one]
143 to 145 °C	CCCN1CCC(Nc2ncc3cc(Cc4ccccc4)c(=O)n(C4CCCC4)c3n2)CC1 [Example 45, 6-Benzyl-8-cyclopentyl-2-(1-propyl-piperidin-4-ylamino)-8H-pyrido[2,3-d]pyrimidin-7-one]
75 °C	O=c1c(Cc2ccccc2)cc2cnc(NC3CCNCC3)nc2n1C1CCCC1 [Example 46, 6-Benzyl-8-cyclopentyl-2-(piperidin-4-ylamino)-8H-pyrido[2,3-d]pyrimidin-7-one]
243 to 245 °C	CS(=O)(=O)N1CCC(Nc2ncc3cc(Cc4ccccc4)c(=O)n(C4CCCC4)c3n2)CC1 [Example 54, 6-Benzyl-8-cyclopentyl-2-(1-methanesulfonyl-piperidin-4-ylamino)-8H-pyrido[2,3-d]pyrimidin-7-one]
178 to 183 °C	Cc1ccccc1Cc1cc2cnc(NC3CCC(N(C)C)CC3)nc2n(C2CCCC2)c1=O (stereo not drawn) [Example 64, 8-Cyclopentyl-2-(4-dimethylamino-cyclohexylamino)-6-(2-methyl-benzyl)-8H-pyrido[2,3-d]pyrimidin-7-one]
191 to 194 °C	Cc1cccc(Cc2cc3cnc(NC4CCC(N(C)C)CC4)nc3n(C3CCCC3)c2=O)c1 (stereo not drawn) [Example 65, 8-Cyclopentyl-2-(4-dimethylamino-cyclohexylamino)-6-(3-methyl-benzyl)-8H-pyrido[2,3-d]pyrimidin-7-one]
179 to 184 °C	Cc1ccc(Cc2cc3cnc(NC4CCC(N(C)C)CC4)nc3n(C3CCCC3)c2=O)cc1 (stereo not drawn) [Example 66, 8-Cyclopentyl-2-(4-dimethylamino-cyclohexylamino)-6-(4-methyl-benzyl)-8H-pyrido[2,3-d]pyrimidin-7-one]
175 to 181 °C	CCc1ccc(Cc2cc3cnc(NC4CCC(N(C)C)CC4)nc3n(C3CCCC3)c2=O)cc1 (stereo not drawn) [Example 67, 8-Cyclopentyl-2-(4-dimethylamino-cyclohexylamino)-6-(4-ethyl-benzyl)-8H-pyrido[2,3-d]pyrimidin-7-one]
174 to 181 °C	CC(C)c1ccc(Cc2cc3cnc(NC4CCC(N(C)C)CC4)nc3n(C3CCCC3)c2=O)cc1 (stereo not drawn) [Example 68, 8-Cyclopentyl-2-(4-dimethylamino-cyclohexylamino)-6-(4-isopropyl-benzyl)-8H-pyrido[2,3-d]pyrimidin-7-one]
